Literature values in patent publication US20140295417A1, “IDENTIFICATION OF ANTIBIOTIC RESISTANCE” (priority 2011, published 2014).
Where two headings read alike, the source gives them in different places. Where a SMILES comes first, the peptide text is derived from it. Bridges are numbered along the chain shown (N, C = ends). [ ]: non-standard residue; d: D form. The star is where a group is joined. NMePhe(4-NMe2) = CN[C@@H](Cc1ccc(N(C)C)cc1)C(=O)O; Pip(4-oxo) = O=C1CCN[C@H](C(=O)O)C1; Picolinoyl(3-OH) = O=C(c1ncccc1O)*; Phg = N[C@H](C(=O)O)c1ccccc1; dAbu = CC[C@@H](N)C(=O)O

Tested on: 23S rRNA
Details: cited from earlier work

For `C=C(NC(=O)C(=C)NC(=O)c1csc(C2=N[C@@H]3c4csc(n4)[C@H]4NC(=O)c5csc(n5)[C@H]([C@](C)(O)[C@@H](C)O)NC(=O)[C@H]5CSC(=N5)/C(=C/C)NC(=O)[C@H]([C@@H](C)O)NC(=O)c5csc(n5)[C@]3(CC2)NC(=O)[C@H](C)NC(=O)C(=C)NC(=O)[C@H](C)NC(=O)[C@H]([C@@H](C)CC)N[C@@H]2C=Cc3c([C@H](C)O)cc(nc3[C@H]2O)C(=O)O[C@@H]4C)n1)C(N)=O` [thiostrepton], the “Phenotype: binding of thiostrepton” value (23S rRNA 1056 G to C, E. coli, RNA fragments) is listed as “weakened in RNA”, the “Phenotype: drug binding affinity” value (23S rRNA 1067 A to C, E. coli) is listed as “affinity is reduced similarly” and the “Phenotype: level of resistance” value (23S rRNA 1067 A to C, E. coli) is listed as “A to C or U confers high”. For the same compound, the “Phenotype: drug binding affinity” value (23S rRNA 1067 A to G, E. coli) was “affinity is reduced similarly”, the “Phenotype: level of resistance” value (23S rRNA 1067 A to G, E. coli) was “confers intermediate level” and the “Phenotype: drug binding affinity” value (23S rRNA 1067 A to U, E. coli) was “affinity is reduced similarly”. For the same compound, the “Phenotype: level of resistance” value (23S rRNA 1067 A to U, E. coli) was “A to C or U confers high” and the “Phenotype: thiostrepton resistance in poly (U) translation” value (23S rRNA 1067 A to U, E. coli, mutant constituted 30% of the total 23S rRNA pool in the ribosomes) was “ribosomes; exhibited 30%”.
For `CC[C@H]1NC(=O)[C@@H](NC(=O)c2ncccc2O)[C@@H](C)OC(=O)[C@H](c2ccccc2)NC(=O)[C@@H]2CC(=O)CCN2C(=O)[C@H](Cc2ccc(N(C)C)cc2)N(C)C(=O)[C@@H]2CCCN2C1=O` [pristinamycin 1A] ({Picolinoyl(3-OH)}-T[dAbu]P[NMePhe(4-NMe2)][Pip(4-oxo)][Phg]; ester 1-C), the “Phenotype (binding on peptidyl transferase loop)” value (23S rRNA position 2500, U2500A/C2501A, E. coli) is listed as “Inhibits binding of 1A” and the “Phenotype (binding on peptidyl transferase loop)” value (23S rRNA position 2602, A2602C/C2501A, E. coli) is listed as “Inhibits binding of 1A”.
In the case of spiramycin, the Phenotype (23S rRNA position 2611, "C to G", Chlamydomonas reinhardtii (Gauthier et al. 1988)) is given as “spiramycin resistance” and the Phenotype (23S rRNA position 2611, "C to G", Yeast mitochondria (Sor and Fukahara 1984)) is given as “spiramycin resistance”.
In the case of `COc1ccc(C[C@H]2NC[C@H](O)[C@H]2OC(C)=O)cc1` [Anisomycin], the Phenotype (23S rRNA position 2447 "G to C", Halobacterium halobium) is listed as “resistance” and the Phenotype (23S rRNA position 2453 "A to C", Halobacterium halobium) is listed as “Anisomycin resistance”.
In the case of `CC[C@H]1OC(=O)[C@H](C)[C@@H](O[C@H]2C[C@@](C)(OC)[C@@H](O)[C@H](C)O2)[C@H](C)[C@@H](O[C@@H]2O[C@H](C)C[C@H](N(C)C)[C@H]2O)[C@](C)(O)C[C@@H](C)C(=O)[C@H](C)[C@@H](O)[C@]1(C)O` [erythromycin], the “Phenotype: growth rate” value (23S rRNA 1056 G to A, E. coli, with 2058G and erythromycin) is given as “erythromycin) Reduced”, the “Phenotype: growth rate” value (23S rRNA 1064 C to U, E. coli, with 2058G and erythromycin) is given as “erythromycin) Reduced” and the Phenotype (23S rRNA 1068 G to A, E. coli, with 2058G, expressed from rrnB or pL promotor in presence of erythromycin) is given as 2058G) Lethal when. For the same compound, the Phenotype (23S rRNA 1137 G to A, double mutant (G1137A/G1138C), E. coli, with 2058G and erythromycin, rrnB promoter) was “lethal when expressed from rrnB”, the Phenotype (23S rRNA 1137 G to A, E. coli, with 2058G and erythromycin, expressed from rrnB promoter) was “lethal when expressed from rrnB” and the Phenotype (23S rRNA 1138 G to C, double mutant (G1138C/G1137A), E. coli, with 2058G and erythromycin, rrnB promoter) was “lethal when expressed from rrnB”. For the same compound, the Phenotype (23S rRNA 1138 G to C, E. coli, with 2058G and erythromycin, rrnB promoter) was “lethal when expressed from rrnB”, the “Phenotype: growth rate” value (23S rRNA 1262 A to C, double mutant (A1262C/U2017G), E. coli, with erythromycin) was “With erythromycin; reduced” and the Phenotype (23S rRNA 1262 A to C, E. coli, with erythromycin) was “With erythromycin; lethal”. For the same compound, the Phenotype (23S rRNA 1262 A to G, E. coli, with erythromycin) was “With erythromycin; lethal”, the “Phenotype: growth rate” value (23S rRNA 1262 A to U, double mutant (A1262U/U2017G), E. coli, with erythromycin) was “With erythromycin; reduced” and the “Phenotype: growth rate” value (23S rRNA 1262 A to U, E. coli, with erythromycin) was “With erythromycin; reduced”. The “Phenotype: growth rate” value (23S rRNA 2017 U to A, E. coli) was “Reduced growth”, the “Phenotype: growth rate” value (23S rRNA 2017 U to C, double mutation (U2017C/A1262G), E. coli) was “Reduced growth” and the “Phenotype: growth rate” value (23S rRNA 2017 U to C, E. coli) was “Reduced growth”. For the same compound, the “Phenotype: growth rate” value (23S rRNA 2017 U to G, double mutation (U2017G/A1262C), E. coli) was “Reduced growth” and the “Phenotype: growth rate” value (23S rRNA 2017 U to G, double mutation (U2017G/A1262U), E. coli) was “Reduced growth”.
For `CCC[C@@H]1C[C@@H](C(=O)N[C@@H]([C@H]2O[C@H](SC)[C@H](O)[C@@H](O)[C@H]2O)[C@@H](C)O)N(C)C1` [lincomycin], the Phenotype (23S rRNA position 2611, "C to G", Chlamydomonas reinhardtii (Harris et al. 1989)) is listed as “low level” and the Phenotype (23S rRNA position 2611, "C to U", Chlamydomonas reinhardtii (Harris et al. 1989)) is listed as “low level”.
In the case of `CCC[C@@H]1C[C@@H](C(=O)N[C@@H]([C@H]2O[C@H](SC)[C@H](O)[C@@H](O)[C@H]2O)[C@@H](C)O)N(C)C1` [Lincomycin], the Phenotype (23S position 2058 A to G, Chlamydomonas reinhardtii, Harris 1989) is listed as “resistance”, the Phenotype (23S position 2058 A to G, Solanum nigrum, Kavanagh 1994) is listed as “resistance” and the Phenotype (23S position 2058 A to G, Tobacco chloroplasts, Cseplö 1988) is listed as “resistance”. The Phenotype (23S position 2059 A to G, Tobacco chloroplasts, Cseplö 1988) was “resistance” and the Phenotype (23S rRNA 2032 G to A, Tobbaco chloroplasts) was “resistance”.
In the case of `CSC[S@+]([O-])C[C@H](CO)NC(=O)/C=C/c1c(C)[nH]c(=O)[nH]c1=O` [Sparsomycin], the Phenotype (23S rRNA position 2499 "C to U", Halobacterium halobium) is given as “resistance”.
In the case of `CC[C@H]1OC(=O)[C@H](C)[C@@H](O[C@H]2C[C@@](C)(OC)[C@@H](O)[C@H](C)O2)[C@H](C)[C@@H](O[C@@H]2O[C@H](C)C[C@H](N(C)C)[C@H]2O)[C@](C)(OC)C[C@@H](C)C(=O)[C@H](C)[C@@H](O)[C@]1(C)O` [Clarithomycin], the Phenotype (23S position 2059 A to G, Helecobacter pylori, Versalovic 1996) is listed as “resistance”.
For `C[C@H]1O[C@H](O[C@H]2CC[C@H](n3ccc(NC(=O)c4ccc(NC(=O)[C@@](C)(N)CO)cc4)nc3=O)O[C@@H]2C)[C@H](O)[C@@H](O)[C@@H]1N(C)C` [Amicetin], the Phenotype (23S rRNA position 2438 "U to A", Halobacterium halobium) is given as “Amicetin resistance” and the Phenotype (23S rRNA position 2438 "U to C", Halobacterium halobium) is given as “Amicetin resistance”.
For `CC[C@H]1OC(=O)[C@H](C)[C@@H](O[C@H]2C[C@@](C)(OC)[C@@H](O)[C@H](C)O2)[C@H](C)[C@@H](O[C@@H]2O[C@H](C)C[C@H](N(C)C)[C@H]2O)[C@](C)(O)C[C@@H](C)C(=O)[C@H](C)[C@@H](O)[C@]1(C)O` [Erythromycin], the Phenotype (23S position 2058 A to G, Yeast mitochondria, Sor and Fukuhara 1982) is given as “resistance”, the Phenotype (23S rRNA 1207 C to U, double mutant (C1207U/C1243U), E. coli) is given as “Erythromycin resistant. a Double” and the Phenotype (23S rRNA 1208 C to U, double mutant (C1208U/C1243U), E. coli) is given as “Erythromycin resistant. a Double”. The Phenotype (23S rRNA 1211 C to U, double mutant (C1211U/C1208U), E. coli) was “Erythromycin sensitive. a Double”, the Phenotype (23S rRNA 1220 G to A, double mutant (G1220A/G1239A), E. coli) was “Erythromycin resistant. a Double” and the Phenotype (23S rRNA 1221 C to U, double mutant (C1221U/C1229U), E. coli) was “Erythromycin resistant. a Double”. For the same compound, the Phenotype (23S rRNA 1221 C to U, double mutant (C1221U/C1233U), E. coli) was “Erythromycin resistant. a Double”, the Phenotype (23S rRNA 1230, double deletion (1230/1231), E. coli) was “Erythromycin sensitive. a Double” and the Phenotype (23S rRNA 1231, double deletion (1231/1230), E. coli) was “Erythromycin sensitive. a Double”. For the same compound, the Phenotype (23S rRNA 1232 G to A, double mutant (G1232A/G1238A), E. coli) was “Erythromycin sensitive. a Double”, the Phenotype (23S rRNA 1233 C to U, E. coli) was “Erythromycin sensitive. a” and the Phenotype (23S rRNA 1234 U to C, E. coli) was “Erythromycin sensitive. a”. The Phenotype (23S rRNA 1234 del1234/del1235, double mutant (U1234C/del1235), E. coli) was “Erythromycin sensitive. a Double”, the Phenotype (23S rRNA 1243 C to U, double mutant (C1243U/C1207), E. coli) was “Erythromycin resistant. a Double” and the Phenotype (23S rRNA 1243 C to U, double mutant (C1243U/C1208U), E. coli) was “Erythromycin resistant. a Double”. The Phenotype (23S rRNA 1243 C to U, double mutant (C1243U/C1221U), E. coli) was “Erythromycin resistant. a Double”.
In the case of `COc1ccc(C[C@H]2NC[C@H](O)[C@H]2OC(C)=O)cc1` [Animosycin], the Phenotype (23S rRNA position 2452 "C to U", Halobacterium (Hummel and Böck 1987)) is given as “Animosycin resistance” and the Phenotype (23S rRNA position 2452 "C to U", Tetrahymena thermophilia) is given as “Animosycin resistance”.
